Like-named read-outs stand apart in the source and are kept apart here.
Tested on: wild‐type BCG cells
Assay type: cell-based, M. bovis BCG
Conditions: for Mean_Ratio (GDI5755_3d vs DMSO_3d): down-regulated, 3 d; for Mean Ratio: GDI5755_2d vs DMSO_2d; for Mean Ratio / Mean Ratio (GDI5755_2d vs DMSO_2d): up-regulated; for Mean Ratio (GDI5755_2d vs DMSO_2d): 2d

O=C(Oc1ccc(Cl)cc1)c1ccc(N2CCOCC2)c([N+](=O)[O-])c1 [GDI‐5755]
Mean_Ratio (GDI5755_3d vs DMSO_3d) (protein A0A0H3MBJ1, BCG_2011c (Rv1994c), HTH-type transcriptional regulator CmtR): 0.738 | Mean Ratio (protein A0A0H3MBK5 Phosphate-binding protein PstS3): 1.29 | Mean Ratio (protein A0A0H3MBM4 NAD(P)H nitroreductase acg): 1.30 | Mean Ratio (protein A0A0H3MBN2 Nuclear transport factor 2 domain-containing protein): 1.27 | Mean Ratio (protein A0A0H3MBN6 Amidohydrolase 3 domain-containing protein): 1.27 | Mean Ratio (GDI5755_2d vs DMSO_2d) (protein A0A0H3MBR5 Probable acetyl-/propionyl-coa carboxylase (Beta subunit) accD2): 1.32 | Mean Ratio (protein A0A0H3MBT4 Probable conserved lipoprotein LppL): 1.32 | Mean Ratio (protein A0A0H3MBZ9 Probable conserved transmembrane protein alanine and leucine rich): 1.27 | Mean_Ratio (GDI5755_3d vs DMSO_3d) (protein A0A0H3MC34, BCG_2260 (Rv2243), Malonyl CoA-acyl carrier protein transacylase fabD): 0.7 | Mean_Ratio (GDI5755_3d vs DMSO_3d) (protein A0A0H3MC70, BCG_1203c (Rv1141c), Probable enoyl-CoA hydratase echA11): 0.7 | Mean_Ratio (GDI5755_3d vs DMSO_3d) (protein A0A0H3MC82, BCG_2311 (Rv2295), CbrC family protein): 0.745 | Mean_Ratio (GDI5755_3d vs DMSO_3d) (protein A0A0H3MC88, BCG_2317 (Rv2301), Cutinase): 0.7 | Mean Ratio (protein A0A0H3MCA1 Alpha/beta hydrolase): 1.25 | Mean_Ratio (GDI5755_3d vs DMSO_3d) (protein A0A0H3MCB3, BCG_1267 (Rv1207), Dihydropteroate synthase): 0.7 | Mean Ratio (protein A0A0H3MCC0 Probable tetronasin-transport atp-binding protein ABC transporter): 1.26 | Mean Ratio (protein A0A0H3MCD2 Transmembrane ATP-binding protein ABC transporter): 1.25 | Mean_Ratio (GDI5755_3d vs DMSO_3d) (protein A0A0H3MCL1, BCG_1383 (Rv1322), ATP/GTP-binding protein): 0.7 | Mean_Ratio (GDI5755_3d vs DMSO_3d) (protein A0A0H3MCL6, BCG_2443c, AAA+ ATPase domain-containing protein): 0.751 | Mean Ratio (protein A0A0H3MD23 Possible exported conserved protein): 1.30 | Mean_Ratio (GDI5755_3d vs DMSO_3d) (protein A0A0H3MDI1, BCG_3731c (Rv1665), Possible chalcone synthase pks11): 0.7 | Mean_Ratio (GDI5755_3d vs DMSO_3d) (protein A0A0H3MDQ0, BCG_2970c (Rv2949c), Chorismate pyruvate-lyase): 0.746 | Mean_Ratio (GDI5755_3d vs DMSO_3d) (protein A0A0H3MDQ9, BCG_2994c (Rv2972c), Possible conserved membrane or exported protein): 0.756 | Mean Ratio (GDI5755_2d vs DMSO_2d) (protein A0A0H3MDS7 Probable conserved lipoprotein lppZ): 1.35 | Mean Ratio (protein A0A0H3ME30 Possible oxidoreductase): 1.30 | Mean_Ratio (GDI5755_3d vs DMSO_3d) (protein A0A0H3ME93, BCG_1959 (Rv1920), Probable membrane protein): 0.752 | Mean Ratio (protein A0A0H3MEA5 methanethiol S-methyltransferase): 1.26 | Mean Ratio (protein A0A0H3MEB3 HNH nuclease domain-containing protein): 1.25 | Mean_Ratio (GDI5755_3d vs DMSO_3d) (protein A0A0H3MEK1, BCG_3412 (Rv3342), Possible methyltransferase (Methylase)): 0.7 | Mean_Ratio (GDI5755_3d vs DMSO_3d) (protein A0A0H3MER9, BCG_3475c (Rv3405c), HTH-type transcriptional repressor): 0.758 | Mean_Ratio (GDI5755_3d vs DMSO_3d) (protein A0A0H3MEW3, BCG_3538c (Rv3473c), Possible peroxidase bpoA): 0.749 | Mean Ratio (GDI5755_2d vs DMSO_2d) (protein A0A0H3MF17 Serine protease Hip1): 1.35 | Mean Ratio (protein A0A0H3MF23 Possible CoA-transferase (Beta subunit)): 1.25 | Mean Ratio (protein A0A0H3MF38 Glycerol-3-phosphate dehydrogenase): 1.31 | Mean_Ratio (GDI5755_3d vs DMSO_3d) (protein A0A0H3MF62, BCG_2297c (Rv2282c), Probable transcription regulator (LysR family)): 0.737 | Mean_Ratio (GDI5755_3d vs DMSO_3d) (protein A0A0H3MFB8, BCG_3726c, Protease): 0.739 | Mean Ratio (protein A0A0H3MFJ3 Transcriptional regulatory protein (Probably arsR-family)): 1.25 | Mean Ratio (GDI5755_2d vs DMSO_2d) (protein A0A0H3MFK9 DSBA-like thioredoxin domain-containing protein): 1.33 | Mean Ratio (GDI5755_2d vs DMSO_2d) (protein A0A0H3MFL5 histidine kinase): 1.35 | Mean Ratio (protein A0A0H3MFN8 Probable O-antigen/lipopolysaccharide transport integral membrane protein ABC transporter rfbD): 1.29 | Mean_Ratio (GDI5755_3d vs DMSO_3d) (protein A0A0H3MFR0, BCG_2539c (Rv2518c), L,D-transpeptidase 2, ldtB/L,D-transpeptidase LdtMt2): 0.7 | Mean Ratio (protein A0A0H3MFS0 Acyltransferase): 1.28 | Mean Ratio (protein A0A0H3MFX4 Protein translocase subunit SecD): 1.31 | Mean_Ratio (GDI5755_3d vs DMSO_3d) (protein A0A0H3MG15, BCG_2663 (Rv2636), O-phosphotransferase): 0.7 | Mean Ratio (protein A0A0H3MG43 Probable antibiotic-transport ATP-binding protein ABC transporter): 1.28 | Mean Ratio (protein A0A0H3MG65 Probable conserved transmembrane protein): 1.25 | Mean Ratio (protein A0A0H3MG92 Conserved 35 kDa alanine rich protein): 1.27 | Mean Ratio (protein A0A0H3MGD9 Metal-dependent hydrolase): 1.32 | Mean_Ratio (GDI5755_3d vs DMSO_3d) (protein A0A0H3MGM3, BCG_2905 (Rv2884), Probable transcriptional regulatory protein): 0.744 | Mean Ratio (protein A0A0H3MGP1 Probable transcriptional regulatory protein (Probably tetR-family)): 1.30 | Mean Ratio (protein A0A0H3MGS1 Probable integral membrane protein): 1.30 | Mean_Ratio (GDI5755_3d vs DMSO_3d) (protein A0A0H3MGU7, BCG_3025c (Rv3003c), Acetolactate synthase): 0.7 | Mean Ratio (protein A0A0H3MH35 Hydroxylase): 1.30 | Mean_Ratio (GDI5755_3d vs DMSO_3d) (protein A0A0H3MH58, BCG_3141 (Rv3116), PRobable molybdenum cofactor biosynthesis protein moeB2): 0.7 | Mean_Ratio (GDI5755_3d vs DMSO_3d) (protein A0A0H3MH84, BCG_3167c (Rv3144c), PPE family protein): 0.7 | Mean_Ratio (GDI5755_3d vs DMSO_3d) (protein A0A0H3MHH8, BCG_3287c (Rv3258c), DUF3499 domain-containing protein): 0.757 | Mean Ratio (GDI5755_2d vs DMSO_2d) (protein A0A0H3MHJ0 Probable metal cation-transporting P-type atpase C ctpC): 1.38 | Mean_Ratio (GDI5755_3d vs DMSO_3d) (protein A0A0H3MIJ3, BCG_3667c (Rv3603c), Conserved hypothetical alanine and leucine rich protein): 0.7 | Mean Ratio (protein A0A0H3MJ41 Uncharacterized protein): 1.29 | Mean_Ratio (GDI5755_3d vs DMSO_3d) (protein A1KF76, BCG_0293c (Rv0255c), Cobyric acid synthase): 0.7 | Mean Ratio (protein A1KFU9 Heparin-binding hemagglutinin): 1.29 | Mean_Ratio (GDI5755_3d vs DMSO_3d) (protein A1KGJ8, BCG_0767 (Rv0717), Small ribosomal subunit protein uS14B): 0.746 | Mean Ratio (protein A1KHB8 Signal transduction histidine-protein kinase/phosphatase MprB): 1.30 | Mean_Ratio (GDI5755_3d vs DMSO_3d) (protein A1KHH0, BCG_1089 (Rv1031), Potassium-transporting ATPase KdpC subunit): 0.7 | Mean Ratio (protein A1KI12 Sec-independent protein translocase protein TatB): 1.27 | Mean_Ratio (GDI5755_3d vs DMSO_3d) (protein A1KI86, BCG_1358 (Rv1298), Large ribosomal subunit protein bL31): 0.7

From article PMC12042115 (mLife, 2025)
